The values that follow come from patent US10077287B2, “Tubulysin analogs and methods of making and use” (priority 2014, dated 2018).

The test system of one assay is H226 (human lung cancer). The assay can be described thus: Inhibition of cell proliferation (ATP luminescence or MTS assay), H226. In kind it is cell-based. The conditions noted are these: NCI-H226, 72 h, read-out: Cancer Cell Line: EC50 (nM) H226. The procedure:
(§1) The cancer cells lines tested against were: H226 (human lung cancer); N87 (human gastric cancer), OVCAR3 (human ovarian cancer), HCT116 (human colon cancer), HCT116NM46 (HCT116 subline with multi-drug resistance, including to paclitaxel), and ACR (human breast cancer, multi-drug resistant). Table II also includes comparative data against reference compounds (A)-(G) not according to this invention:
(§2) The ability of test compounds to inhibit cell proliferation was measured by either an ATP luminescence assay or an MTS cell proliferation assay. […] In some instances, both methods were used.
(§3) This is a general procedure for an ATP luminescence assay: Cells are seeded at 1×10^3 cells/well in 96-well plates for 3 h for ATP CellTiterGlo™ assays, respectively. Serial dilutions (1:3) of compounds are added to the wells. Plates are allowed to incubate for 72 h. A CellTiterGlo™ cell viability kit from Promega is used to measure ATP content of cells treated with test compounds following manufacturer's instruction. A decrease in the ATP content is a measure of decrease in cellular viability. The EC50 value—the concentration at which an agent reduces cell viability by 50% of the maximum effect—is determined using PRISM™ software, version 5.0 (GraphPad Software, La Jolla, Calif., USA).
(§4) The following is a description of the MTS cell proliferation assay: CellTiter 96 Aqueous Non-Radioactive Cell proliferation Kit from Promega (Madison, Wis.) is used to determine the number of viable cells in cell proliferation assay. Tumor cells are plated at certain seeding densities in sterile 384-well black clear bottom Matrix plates at 40 μL per well and incubated overnight at 37° C. in 5% CO2 before assaying. On the next day, one set of cell plates (T0 plates) is used to determine time zero cell density, and 3-(4,5-dimethylthiazol-2-yl)-5-(3-carboxymethoxyphenyl)-2-(4-sulfophenyl)-2H-tetrazolium is added at 4 μL/well into T0 plates followed by incubation at 37° C. in 5% CO2 for three hours. This tetrazolium reagent is bioreduced by […] to form a formazan product which is soluble in aqueous solution. Absorbance at 490 nm is measured on an Envision reader (Perkin Elmer, Boston, Mass.). On the same day, compounds are added into remaining cell plates (T72 plates) and incubated at 37° C. in 5% CO2. After 72 hours, 4 μL MTS reagents are then added into those cell plates. The plates are further incubated at 37° C. in 5% CO2 for three hours and the absorbance values at A490 were measured on an Envision reader.
(Tetrazolium assays rely on reduction of a dye to a coloured formazan, in cell work by metabolically active cells.)

The subject of assay [1] is ADR (human breast cancer, multi-drug resistant). The assay can be described thus: Inhibition of cell proliferation (ATP luminescence or MTS assay), ADR. The note with it: 72 h, read-out: Cancer Cell Line: EC50 (nM) ADR. In kind it is cell-based. As to the method: as §1, §2
This is a general procedure for an ATP luminescence assay: Cells are seeded at 1×10^3 cells/well in 96-well plates for 3 h for ATP CellTiterGlo™ assays, respectively. Serial dilutions (1:3) of compounds are added to the wells. Plates are allowed to incubate for 72 h. […]
The following is a description of the MTS cell proliferation assay: CellTiter 96 Aqueous Non-Radioactive Cell proliferation Kit from Promega (Madison, Wis.) is used to determine the number of viable cells in cell proliferation assay. […] Absorbance at 490 nm is measured on an Envision reader (Perkin Elmer, Boston, Mass.). […] The plates are further incubated at 37° C. in 5% CO2 for three hours and the absorbance values at A490 were measured on an Envision reader.

Assay [2] has as its system N87 (human gastric cancer). The assay can be described thus: Inhibition of cell proliferation (ATP luminescence or MTS assay), N87. In kind it is cell-based. The conditions noted are these: 72 h, read-out: Cancer Cell Line: EC50 (nM) N87. The procedure:
as §1, §2, §3, §4

The subject of assay [3] is OVCAR3 (human ovarian cancer). The assay can be described thus: Inhibition of cell proliferation (ATP luminescence or MTS assay), OVCAR3. In kind it is cell-based. The note with it: OVCAR-3, 72 h, read-out: Cancer Cell Line: EC50 (nM) OVCAR3. The procedure: as §1, §2, §3, §4
Assay [4] has as its system HCT116 (human colon cancer). The assay can be described thus: Inhibition of cell proliferation (ATP luminescence or MTS assay), HCT116. In kind it is cell-based. The note with it: HCT-116, 72 h, read-out: Cancer Cell Line: EC50 (nM) HCT116. As to the method:
as §1, §2, §3, §4

Assay [5] deals with HCT116/VM46 (HCT116 subline with multi-drug resistance, including to paclitaxel). The assay can be described thus: Inhibition of cell proliferation (ATP luminescence or MTS assay), HCT116/VM46. Type of assay: cell-based. The conditions noted are these: Homo sapiens, HCT-116/VM46, multi-drug resistant HCT116 subline, 72 h, read-out: Cancer Cell Line: EC50 (nM) HCT116/VM46. As to the method: as §1, §2, §3, §4

Assay [6] relates to cancer cells. The note with it: Kaur et al. 2006; cited from earlier work.
In assay [7] the test system is various cancer cell lines. The note with it: Kaur et al. 2006; cited from earlier work.
Assay [8] has as its system cancer cells. The note with it: cancer cells versus normal cells; Kaur et al. 2006; cited from earlier work.
The conditions of assay [9]: in vitro assays; Kaur et al. 2006; cited from earlier work.

Turning to `CCCN(C(=O)[C@@H](NC(=O)[C@H]1CCCCN1C)[C@@H](C)CC)[C@H](C[C@@H](OC(=O)NC)c1nc(C(=O)N[C@H](CCC(=O)O)Cc2ccc(N)cc2)cs1)C(C)C` [(E), reference compound], the EC50 came to 28 nM with H226 (human lung cancer) and 189 nM in assay [1].
With `CCCN(C(=O)[C@@H](NC(=O)[C@H]1CCCCN1C)[C@@H](C)CC)[C@H](C[C@@H](OC(C)=O)c1nc(C(=O)N[C@@H](Cc2ccc(N)cc2)CC(C)(C)C(=O)O)cs1)C(C)C` [(Ia-1)], the EC50 in the assay on H226 (human lung cancer) was 0.089 nM; in [2], 0.03 to 0.2 nM; in [3], 0.016 to 0.04 nM.
`CCCN(C(=O)[C@@H](NC(=O)[C@H]1CCCCN1C)[C@@H](C)CC)[C@H](C[C@@H](OC(=O)NC)c1nc(C(=O)N[C@@H](Cc2ccc(N)cc2)CC(C)(C)C(=O)O)cs1)C(C)C` [(Ia-2), (S)-5-(4-aminophenyl)-4-(2-((5R,7R,10S)-10-((S)-sec-butyl)-7-isopropyl-12-((R)-1-methylpiperidin-2-yl)-3,9,12-trioxo-8-propyl-4-oxa-2,8,11-triazadodecan-5-yl)thiazole-4-carboxamido)-2,2-dimethylpentanoic acid]: the EC50 was 0.33 to 1.1 nM in the assay with H226 (human lung cancer); 0.65 to 1 nM in assay [2]; 0.07 to 0.1 nM in assay [3]; 0.58 nM in [4]; 1.22 nM in assay [5]; 9.5 nM in assay [1].
Regarding `CCCN(C(=O)[C@@H](NC(=O)[C@H]1CCCCN1C)C(C)C)[C@H](C[C@@H](OC(C)=O)c1nc(C(=O)N[C@@H](Cc2ccc(N)cc2)CC(C)(C)C(=O)O)cs1)C(C)C` [(Ia-3)], the EC50 in the assay on H226 (human lung cancer) amounted to 0.086 nM; in assay [2] it was 0.16 nM; in [3] it was 0.019 nM; in assay [4], 0.13 nM; in assay [5], 0.19 nM.
Take `CCCN(C(=O)[C@@H](NC(=O)[C@H]1CCCCN1C)[C@@H](C)CC)[C@H](C[C@@H](OC(=O)NC)c1nc(C(=O)N[C@@H](Cc2ccc(N)cc2)CC2(C(=O)O)CC2)cs1)C(C)C` [(Ib-1), 1-((S)-3-(4-aminophenyl)-2-(2-((5R,7R,10S)-10-((S)-sec-butyl)-7-isopropyl-12-((R)-1-methylpiperidin-2-yl)-3,9,12-trioxo-8-propyl-4-oxa-2,8,11-triazadodecan-5-yl)thiazole-4-carboxamido)propyl)cyclopropanecarboxylic acid]: the EC50 was determined as 0.63 nM in the assay with H226 (human lung cancer), 1.7 nM in assay [2] and 0.07 nM in assay [3].
`CCCN(C(=O)[C@@H](NC(=O)[C@H]1CCCCN1C)[C@@H](C)CC)[C@H](C[C@@H](OC(=O)NC)c1nc(C(=O)N[C@@H](Cc2ccc(N)cc2)CC2(C(=O)OC)CC2)cs1)C(C)C` [(Ib-2), methyl 1-((S)-3-(4-aminophenyl)-2-(2-((5R,7R,10S)-10-((S)-sec-butyl)-7-isopropyl-12-((R)-1-methylpiperidin-2-yl)-3,9,12-trioxo-8-propyl-4-oxa-2,8,11-triazadodecan-5-yl)thiazole-4-carboxamido)propyl)cyclopropanecarboxylate]: the EC50 with H226 (human lung cancer) turned out to be 0.4 nM; in assay [2] it was 4.4 nM; in assay [3], 0.15 nM.
On to `CCCN(C(=O)[C@@H](NC(=O)[C@H](NC)C(C)C)[C@@H](C)CC)[C@H](C[C@@H](OC(C)=O)c1nc(C(=O)N[C@@H](Cc2ccccc2)CC(C)(C)C(=O)O)cs1)C(C)C` [(Ic-1), (S)-4-(2-((3R,6S,9R,11R)-6-((S)-sec-butyl)-3,9-diisopropyl-4,7,13-trioxo-8-propyl-12-oxa-2,5,8-triazatetradecan-11-yl)thiazole-4-carboxamido)-2,2-dimethyl-5-phenylpentanoic acid], for which the EC50 came out at 0.038 nM in the assay on H226 (human lung cancer); 0.2 nM in assay [2]; 0.012 nM in assay [3]; 0.064 nM in assay [4]; 0.51 nM in assay [5].
The like results for `CCCN(C(=O)[C@@H](NC(=O)[C@H](NC)C(C)C)[C@@H](C)CC)[C@H](C[C@@H](OC(=O)NC)c1nc(C(=O)N[C@@H](Cc2ccccc2)CC(C)(C)C(=O)O)cs1)C(C)C` [(Ic-2)] were, in that order, 0.31 nM, 0.37 nM, 0.04 nM, 0.26 nM and 7.5 nM.
As to `CC[C@H](C)[C@H](NC(=O)[C@H]1CCCCN1C)C(=O)N(COC(=O)CC(C)C)[C@H](C[C@@H](OC(C)=O)c1nc(C(=O)N[C@@H](Cc2ccc(O)cc2)C[C@H](C)C(=O)O)cs1)C(C)C` [tubulysin A], the “antiproliferative potency compared with paclitaxel and vinblastine” value with cancer cells [6] is “more potent than paclitaxel and vinblastine”. Also, the “activity in xenograft assays” value in assay [7] was “active in xenograft assays”. Moreover, the induction of apoptosis result with cancer cells [8] is “induced apoptosis in cancer cells but not in normal cells”. Also, the antiangiogenic properties entry in assay [9] is “significant potential antiangiogenic properties”.
